This is an account of results in patent US20080145313A1, “Compositions and Methods for the Treatment and Prevention of Neoplastic Disorders” (Genesis Research & Development Corporation Limited, priority 2006, published 2008).

For this data set, the system named is target transcript mRNA in A549 cells. Kind of data set: Level of mRNA of target transcript in A549 cells by quantitative RT-PCR (Tables 12 and 13). It is filed as cell-based, human. The following applies: 24 h post-transfection; for mRNA knockdown of energy and metabolism gene target transcript, 0.1 nM: 0.1 nM siRNA; for mRNA knockdown of energy and metabolism gene target transcript, 1 nM: 1 nM siRNA; for mRNA knockdown of energy and metabolism gene target transcript, 10 nM: 10 nM siRNA. As to the method:
A549 cells were transfected as described before with 0.1, 1.0 and 10 nM siRNA as listed in Tables 10 and 11 and the relative mRNA levels quantified 24 h post-transfection. RNA was purified from cells using Trizol® extraction as per the manufacturer's protocol (Invitrogen). cDNA was prepared by digesting approximately 200 ng purified RNA with DNAse I (Invitrogen) for 15 minutes at room temperature, followed by 15 minutes at 65° C. in the presence of 25 mM EDTA. 30 ng random primers were added and incubated for 10 minutes at 65° C., 1 minute on ice; Superscript® III polymerase (Invitrogen) was added in presence of 5 nM DTT (Invitrogen) and 1 mM deoxyribonucleotides (Invitrogen), and the reaction incubated at 25° C. for 5 minutes, followed by an hour at 50° C. cDNA was diluted 1:3 in 10 mM Tris pH 7.0, and quantitative RT-PCR carried out on an ABI Prism 7900HT (Applied Biosciences, Inc., Foster City, Calif.) using FastStart TaqMan SYBRGreen (Roche, Basel, Switzerland) or Platinum SYBR Green (Invitrogen) and 360 nM of the primers specific for gene targets and housekeeping genes HPRT and Lamin. Reduction in target mRNA levels following siRNA transfection are given in Tables 12 and 13, together with the gene specific primer sequences. Primer sequences used for the housekeeping genes HPRT and Lamin are given in SEQ ID NO: 4885-4888.

Turning to “3548 (GCAACTACCGCGAGCTGCGCTGGTT; chemistry not given here) [compound 3548]”, the “mRNA knockdown of energy and metabolism gene target transcript, 0.1 nM” value (“mRNA knockdown … 0.1 nM” for short) is on record as “++ (70-90% mRNA knockdown)”; the “mRNA knockdown of energy and metabolism gene target transcript, 1 nM” value was “++ (70-90% mRNA knockdown)”; the “mRNA knockdown of energy and metabolism gene target transcript, 10 nM” value is recorded as “+++ (>90% mRNA knockdown)”.
On to “3549 (GGCAACTACCGCGAGCTGCGCTGGTT; chemistry not given here) [compound 3549]”, for which the “mRNA knockdown … 0.1 nM” value is listed as “+ (50-70% mRNA knockdown)”; the “mRNA knockdown of energy and metabolism gene target transcript, 1 nM” value was “+++ (>90% mRNA knockdown)”; the “mRNA knockdown of energy and metabolism gene target transcript, 10 nM” value is on record as “++ (70-90% mRNA knockdown)”.
On the same counts, the results for “3550 (AGGCAACTACCGCGAGCTGCGCTGGTT; chemistry not given here) [compound 3550]” are “++ (70-90% mRNA knockdown)”, “++ (70-90% mRNA knockdown)” and “+++ (>90% mRNA knockdown)”.
For the substance “3551 (AAGGCAACTACCGCGAGCTGCGCTGGTT; chemistry not given here) [compound 3551]”, the “mRNA knockdown … 0.1 nM” value was “++ (70-90% mRNA knockdown)”; the “mRNA knockdown of energy and metabolism gene target transcript, 1 nM” value was “− (<50% mRNA knockdown)”.
As to “3552 (GAAGGCAACTACCGCGAGCTGCGCTGGTT; chemistry not given here) [compound 3552]”, the “mRNA knockdown … 0.1 nM” value is recorded as “+ (50-70% mRNA knockdown)”; the “mRNA knockdown of energy and metabolism gene target transcript, 1 nM” value is on record as “++ (70-90% mRNA knockdown)”.
For the substance “3553 (TGAAGGCAACTACCGCGAGCTGCGCTGGTT; chemistry not given here) [compound 3553]”, the “mRNA knockdown … 0.1 nM” value is given as “++ (70-90% mRNA knockdown)”; the “mRNA knockdown of energy and metabolism gene target transcript, 1 nM” value is “++ (70-90% mRNA knockdown)”.
For “3554 (CGGATGTTGGGATCATTATTA; chemistry not given here) [compound 3554]”, the “mRNA knockdown … 0.1 nM” value is reported as “++ (70-90% mRNA knockdown)”; the “mRNA knockdown of energy and metabolism gene target transcript, 1 nM” value is on record as “++ (70-90% mRNA knockdown)”.
For “3555 (ACGGATGTTGGGATCATTATTA; chemistry not given here) [compound 3555]”, the “mRNA knockdown … 0.1 nM” value is “++ (70-90% mRNA knockdown)”; the “mRNA knockdown of energy and metabolism gene target transcript, 1 nM” value is reported as “++ (70-90% mRNA knockdown)”.
For the substance “3556 (TACGGATGTTGGGATCATTATTA; chemistry not given here) [compound 3556]”, the “mRNA knockdown … 0.1 nM” value is recorded as “++ (70-90% mRNA knockdown)”; the “mRNA knockdown of energy and metabolism gene target transcript, 1 nM” value was “++ (70-90% mRNA knockdown)”.
With “3557 (CTACGGATGTTGGGATCATTATTA; chemistry not given here) [compound 3557]”, the “mRNA knockdown … 0.1 nM” value was “++ (70-90% mRNA knockdown)”; the “mRNA knockdown of energy and metabolism gene target transcript, 1 nM” value is reported as “++ (70-90% mRNA knockdown)”.
“3558 (GCTACGGATGTTGGGATCATTATTA; chemistry not given here) [compound 3558]”: the “mRNA knockdown … 0.1 nM” value is “− (<50% mRNA knockdown)”; the “mRNA knockdown of energy and metabolism gene target transcript, 1 nM” value is “++ (70-90% mRNA knockdown)”.
Take “3559 (GGCTACGGATGTTGGGATCATTATTA; chemistry not given here) [compound 3559]”: the “mRNA knockdown … 0.1 nM” value is listed as “++ (70-90% mRNA knockdown)”; the “mRNA knockdown of energy and metabolism gene target transcript, 1 nM” value was “++ (70-90% mRNA knockdown)”.
Consider “3560 (CGGCTACGGATGTTGGGATCATTATTA; chemistry not given here) [compound 3560]”, for which the “mRNA knockdown … 0.1 nM” value is on record as “++ (70-90% mRNA knockdown)”; the “mRNA knockdown of energy and metabolism gene target transcript, 1 nM” value is recorded as “++ (70-90% mRNA knockdown)”.
Turning to “3561 (GCGGCTACGGATGTTGGGATCATTATTA; chemistry not given here) [compound 3561]”, the “mRNA knockdown … 0.1 nM” value is listed as “+ (50-70% mRNA knockdown)”; the “mRNA knockdown of energy and metabolism gene target transcript, 1 nM” value is recorded as “++ (70-90% mRNA knockdown)”.
With “3562 (TGCGGCTACGGATGTTGGGATCATTATTA; chemistry not given here) [compound 3562]”, the “mRNA knockdown … 0.1 nM” value is “++ (70-90% mRNA knockdown)”; the “mRNA knockdown of energy and metabolism gene target transcript, 1 nM” value is “+++ (>90% mRNA knockdown)”.
On the same counts, the results for “3563 (ATGCGGCTACGGATGTTGGGATCATTATTA; chemistry not given here) [compound 3563]” are “++ (70-90% mRNA knockdown)” and “+++ (>90% mRNA knockdown)”.
On the same counts, the results for “3564 (GCAAGAACGGTGGGATTTACT; chemistry not given here) [compound 3564]” are “++ (70-90% mRNA knockdown)” and “+++ (>90% mRNA knockdown)”.
In the case of “3565 (AGCAAGAACGGTGGGATTTACT; chemistry not given here) [compound 3565]”, the “mRNA knockdown … 0.1 nM” value is reported as “++ (70-90% mRNA knockdown)”; the “mRNA knockdown of energy and metabolism gene target transcript, 1 nM” value was “+++ (>90% mRNA knockdown)”.
On the same counts, the results for “3572 (GGTCACCAGCAAGAACGGTGGGATTTACT; chemistry not given here) [compound 3572]” are “+ (50-70% mRNA knockdown)” and “++ (70-90% mRNA knockdown)”.
As for “3573 (TGGTCACCAGCAAGAACGGTGGGATTTACT; chemistry not given here) [compound 3573]”, the “mRNA knockdown … 0.1 nM” value is reported as “++ (70-90% mRNA knockdown)”; the “mRNA knockdown of energy and metabolism gene target transcript, 1 nM” value is “+++ (>90% mRNA knockdown)”.
In the case of “3574 (GCGGTTTTTCTCCAAGTACTC; chemistry not given here) [compound 3574]”, the “mRNA knockdown … 0.1 nM” value was “++ (70-90% mRNA knockdown)”; the “mRNA knockdown of energy and metabolism gene target transcript, 1 nM” value was “+++ (>90% mRNA knockdown)”.
As to “3575 (AGCGGTTTTTCTCCAAGTACTC; chemistry not given here) [compound 3575]”, the “mRNA knockdown … 0.1 nM” value is on record as “+++ (>90% mRNA knockdown)”; the “mRNA knockdown of energy and metabolism gene target transcript, 1 nM” value is reported as “+++ (>90% mRNA knockdown)”.
For the substance “3576 (AAGCGGTTTTTCTCCAAGTACTC; chemistry not given here) [compound 3576]”, the “mRNA knockdown … 0.1 nM” value is recorded as “+++ (>90% mRNA knockdown)”; the “mRNA knockdown of energy and metabolism gene target transcript, 1 nM” value is “+++ (>90% mRNA knockdown)”.
With “3577 (GAAGCGGTTTTTCTCCAAGTACTC; chemistry not given here) [compound 3577]”, the “mRNA knockdown … 0.1 nM” value is recorded as “++ (70-90% mRNA knockdown)”; the “mRNA knockdown of energy and metabolism gene target transcript, 1 nM” value is reported as “+++ (>90% mRNA knockdown)”.
As for “3578 (TGAAGCGGTTTTTCTCCAAGTACTC; chemistry not given here) [compound 3578]”, the “mRNA knockdown … 0.1 nM” value is listed as “+ (50-70% mRNA knockdown)”; the “mRNA knockdown of energy and metabolism gene target transcript, 1 nM” value is recorded as “++ (70-90% mRNA knockdown)”.
Turning to “3579 (GTGAAGCGGTTTTTCTCCAAGTACTC; chemistry not given here) [compound 3579]”, the “mRNA knockdown … 0.1 nM” value is recorded as “++ (70-90% mRNA knockdown)”; the “mRNA knockdown of energy and metabolism gene target transcript, 1 nM” value was “+++ (>90% mRNA knockdown)”.
“3580 (AGTGAAGCGGTTTTTCTCCAAGTACTC; chemistry not given here) [compound 3580]”: the “mRNA knockdown … 0.1 nM” value is reported as “++ (70-90% mRNA knockdown)”; the “mRNA knockdown of energy and metabolism gene target transcript, 1 nM” value is “++ (70-90% mRNA knockdown)”.
“3584 (ACAGAGGAGCAAGATACAGGC; chemistry not given here) [compound 3584]”: the “mRNA knockdown … 0.1 nM” value was “++ (70-90% mRNA knockdown)”; the “mRNA knockdown of energy and metabolism gene target transcript, 1 nM” value is recorded as “++ (70-90% mRNA knockdown)”.
Turning to “3585 (AACAGAGGAGCAAGATACAGGC; chemistry not given here) [compound 3585]”, the “mRNA knockdown … 0.1 nM” value is listed as “++ (70-90% mRNA knockdown)”; the “mRNA knockdown of energy and metabolism gene target transcript, 1 nM” value is recorded as “++ (70-90% mRNA knockdown)”.
As to “3586 (AAACAGAGGAGCAAGATACAGGC; chemistry not given here) [compound 3586]”, the “mRNA knockdown … 0.1 nM” value is “++ (70-90% mRNA knockdown)”; the “mRNA knockdown of energy and metabolism gene target transcript, 1 nM” value was “+++ (>90% mRNA knockdown)”.
For the substance “3592 (TGCCAAAAACAGAGGAGCAAGATACAGGC; chemistry not given here) [compound 3592]”, the “mRNA knockdown … 0.1 nM” value is “− (<50% mRNA knockdown)”; the “mRNA knockdown of energy and metabolism gene target transcript, 1 nM” value is “+ (50-70% mRNA knockdown)”.
